Experimental findings from article PMC13195669, “GPR3 Ligands Discovered through Combined Virtual and Conformational Biosensor-Based Screening” (Journal of the American Chemical Society, 2026) are described below.

Assay [1] addresses T1, GPR3 (Homo sapiens, UniProt P46089).
T1 construct: host or cells: HEK293A, transient
Put plainly: Gs heterotrimer dissociation biosensor (Gs-CASE) in HEK293A cells cotransfected with GPR3. It counts as cell-based. To be noted: HEK293A transiently transfected with Gs-CASE and GPR3; read-out: EC50 of GPR3-dependent BRET increase, Gs dissociation biosensor. The text has this:
To further delineate the pharmacological properties of 33, we evaluated its activity in signaling assays downstream of GPR3. […] We also investigated whether 33 blocks the activity of previously validated GPR3 ligands–the agonist DPI and the inverse agonist AF64394 (Chart )–in a cAMP assay. […] The differential effect between OEA and oleamide may reflect differences in their conformational and/or positional flexibility within the GPR3 binding pocket. This difference is supported by MD simulations of oleamide in GPR3 and by a comparison of oleic acid binding poses in the highly similar pockets of GPR3 and GPR6. , […]
Cells expressing the conformational GPCR biosensors were grown for 24 h (stable cells) or 48 h (transiently transfected cells) in white 96-well plates and washed with 100 µl of HBSS. […] Three baseline BRET reads were recorded and averaged prior to the addition of serial dilutions of ligands or veh icle control and subsequent BRET reads. […] BRE T donor emission was quantified with a 470/80 nm monochromator. […] Experiments were carried out using a CLARIOstar plate reader.
FRET- and BRET-based measurements of cAMP levels and Gs dissociation/reassociation Transfected cells grown in black 96-well plates were washed twice with 100 µl of HBSS 48 h after transfection and incubated with HBSS. […] FRET donor emission was quantified with a 480/10 nm filter. […]
For orientation: In BRET a luciferase serves as donor, and the signal depends on an acceptor being close.

Assay [2] has as its target T2, LPA receptor 1 (LPAR1) (Homo sapiens, UniProt Q92633).
T2 construct: expressed in transfected cells; host or cells: HEK293A, transient
Put plainly: cAMP GloSensor 22F, agonist-stimulated LPAR1. It counts as cell-based. To be noted: preincubation with 100 μM or 10 μM; 10 µM forskolin. Here is the method: Next, we used the classical cAMP GloSensor technology to assess the target selectivity profile of 33. […] In addition, we tested the effects of 33 on cAMP changes mediated by agonist-stimulated GPCRs phylogenetically close to GPR3 and coupling to Gs or Gi/o proteins.
BRET-based GPCR conformational sensor experiments
Cells expressing the conformational GPCR biosensors were grown for 24 h (stable cells) or 48 h (transiently transfected cells) in white 96-well plates and washed with 100 µl of HBSS. After washing, cells were incubated for 2 minutes with a 1/1000 solution of the furimazine stock solution (Promega; cat. no. N1662). Three baseline BRET reads were recorded and averaged prior to the addition of serial dilutions of ligands or veh icle control and subsequent BRET reads. […] BRE T donor emission was quantified with a 470/80 nm monochromator. […] Experiments were carried out using a CLARIOstar plate reader.
FRET- and BRET-based measurements of cAMP levels and Gs dissociation/reassociation Transfected cells grown in black 96-well plates were washed twice with 100 µl of HBSS 48 h after transfection and incubated with HBSS. […] Three baseline FRET/BRET reads were recorded and averaged prior to the addition of serial dilutions of ligands or vehicle control and sub-sequent FRET/BRET reads. […] FRET donor emission was quantified with a 480/10 nm filter. […]
Luminescence measurement using the cAMP GloSensor™ 22F […]

T2 sequence (Q92633 whole entry, species assumed): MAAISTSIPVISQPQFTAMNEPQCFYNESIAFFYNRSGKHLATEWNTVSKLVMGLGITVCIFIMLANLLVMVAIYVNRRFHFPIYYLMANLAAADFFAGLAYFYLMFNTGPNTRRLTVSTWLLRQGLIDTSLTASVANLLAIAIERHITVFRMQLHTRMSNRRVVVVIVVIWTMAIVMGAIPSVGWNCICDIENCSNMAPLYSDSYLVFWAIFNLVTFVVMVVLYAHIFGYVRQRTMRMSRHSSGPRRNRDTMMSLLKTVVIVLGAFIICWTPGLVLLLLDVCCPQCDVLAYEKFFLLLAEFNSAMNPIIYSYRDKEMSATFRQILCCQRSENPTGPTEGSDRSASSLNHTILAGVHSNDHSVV
T1 sequence (P46089 whole entry): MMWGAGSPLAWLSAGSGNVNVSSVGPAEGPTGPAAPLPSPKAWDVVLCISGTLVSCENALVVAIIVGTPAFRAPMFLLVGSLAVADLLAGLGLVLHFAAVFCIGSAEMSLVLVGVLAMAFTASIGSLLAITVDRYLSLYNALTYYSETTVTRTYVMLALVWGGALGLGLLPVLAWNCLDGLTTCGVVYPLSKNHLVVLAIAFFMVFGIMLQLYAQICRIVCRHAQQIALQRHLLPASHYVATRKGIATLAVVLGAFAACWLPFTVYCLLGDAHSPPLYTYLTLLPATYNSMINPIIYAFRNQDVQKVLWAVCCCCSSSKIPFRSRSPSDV

By EC50 is commonly meant the concentration at which the effect is half-maximal. On to `N=c1n(Cc2ccccc2)c2ccccc2n1CC1CC1` [compound 33], for which, in assay [1], the EC50 is 249 nM. For the same molecule, in assay [2], the “effect on agonist-induced cAMP change mediated by LPAR1” value is given as “neither 100 μM nor 10 μM 33 significantly altered”.
